This is an account of results in PubChem BioAssay (NCI).

Where “and” joins values, the source holds several entries; their conditions need not be identical. Equal entries are not always repeated.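 Assay format: 96-well plates, 48-hour exposure. GI50: concentration for 50% inhibition of growth. At the TGI there is no net growth.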

A word on the GI50: it is the concentration at which growth is held to half of that of the control. What is called TGI is the concentration at which net growth stops.

Among the test systems are HCT-15 colon; MOLT-4 leukemia; ACHN renal; CCRF-CEM leukemia; RPMI-8226 leukemia; A498 renal; SF-539 CNS; COLO 205 colon; OVCAR-5 ovarian; M14 melanoma.
Holding throughout (experiment): DTP human tumour cell line panel, 48 h

Take `Nc1cc(-c2cccc(OC(F)(F)F)c2)nc2ccc(N3CCCC3)cc12`: the GI50 in the experiment on HCT-15 colon is 0.0338 µM and 0.0349 µM and 0.0312 µM; in the experiment with MOLT-4 leukemia, 0.0447 µM and 0.0422 µM and 0.0405 µM; in the experiment on ACHN renal, 0.0903 µM and 0.101 µM and 0.107 µM; in the experiment on CCRF-CEM leukemia, 0.0381 µM and 0.0302 µM and 0.0259 µM; in the experiment on RPMI-8226 leukemia it was 0.0479 µM and 0.0404 µM and 0.0447 µM; with A498 renal it was 0.0271 µM and 0.023 µM and 0.0266 µM. Further, the GI50 in the experiment on SF-539 CNS was 0.0358 µM and 0.0372 µM and 0.0354 µM; with COLO 205 colon it was 0.041 µM and 0.0391 µM and 0.0357 µM; with OVCAR-5 ovarian, 0.113 µM and 0.0843 µM and 0.0687 µM; in the experiment with M14 melanoma, 0.0285 µM and 0.0215 µM and 0.0168 µM. Moreover, the TGI in the experiment with HCT-15 colon is 11.5 µM and > 100 µM; in the experiment on ACHN renal it was 26 µM and > 100 µM; in the experiment on CCRF-CEM leukemia it was 11.6 µM and > 52.5 µM and > 49.6 µM; in the experiment on RPMI-8226 leukemia, 7.32 µM and > 33.2 µM and > 64.9 µM; in the experiment on A498 renal it was 0.193 µM and 0.0936 µM and 0.257 µM; in the experiment on SF-539 CNS, 1.24 µM and 1.54 µM and 1.42 µM. The concentration for total growth inhibition (TGI) with COLO 205 colon was 1.42 µM and 2.61 µM; in the experiment with OVCAR-5 ovarian, 99.2 µM and > 100 µM; with M14 melanoma, 1.6 µM and 1.7 µM.

As for `COC(=O)C12C3C4C5C3(C#N)C1C5(C(=O)OC)C42C(=O)N(C(C)C)C(C)C` (configuration not stated), the total growth inhibition concentration (TGI) in the experiment with HCT-15 colon is over 60.4 µM; with MOLT-4 leukemia, over 100 µM; in the experiment with ACHN renal it was over 100 µM; in the experiment on CCRF-CEM leukemia, over 67.5 µM; with RPMI-8226 leukemia it was over 69.3 µM; with A498 renal, over 100 µM. The concentration for total growth inhibition (TGI) in the experiment with SF-539 CNS, in the experiment with COLO 205 colon, in the experiment on OVCAR-5 ovarian and in the experiment with M14 melanoma was over 100 µM throughout.

For `CCCCc1ccc(-n2c3nc(=O)n(C)c(=O)c-3nc3ccccc32)cc1`, the concentration for total growth inhibition (TGI) was found to be 18.3 µM with HCT-15 colon; 41.9 µM with MOLT-4 leukemia; 23.1 µM in the experiment with ACHN renal; 41.6 µM in the experiment with CCRF-CEM leukemia; 57 µM with RPMI-8226 leukemia; 32.7 µM in the experiment with A498 renal. Further, the concentration for total growth inhibition (TGI) with SF-539 CNS was found to be 27.1 µM; with COLO 205 colon, 13 µM; in the experiment with OVCAR-5 ovarian it was 32 µM; in the experiment with M14 melanoma, 21.7 µM.

For `Nc1nc(=S)[nH]c(C(=O)Nc2ccc(Cl)c(Cl)c2)c1-c1ccc(Cl)cc1`, the TGI in the experiment on HCT-15 colon, with MOLT-4 leukemia, with ACHN renal, in the experiment with CCRF-CEM leukemia, with RPMI-8226 leukemia and in the experiment with A498 renal was over 100 µM in each case. The concentration for total growth inhibition (TGI) in the experiment with SF-539 CNS, in the experiment on COLO 205 colon, with OVCAR-5 ovarian and with M14 melanoma was over 100 µM throughout.

Consider `C[C@@H]1N=C(c2ccc(Br)cc2)Nc2nc3ccccn3c2C1=O`, for which the GI50 with HCT-15 colon was 3.64 µM; in the experiment with MOLT-4 leukemia, 12.8 µM; in the experiment on ACHN renal, 6.75 µM; with CCRF-CEM leukemia, 6.56 µM; with RPMI-8226 leukemia, 7.31 µM; with A498 renal, 3.26 µM. Further, the GI50 was 7.98 µM with SF-539 CNS, 1.87 µM with COLO 205 colon, 23.5 µM in the experiment with OVCAR-5 ovarian and 3.6 µM with M14 melanoma. Also, the concentration for total growth inhibition (TGI) in the experiment on HCT-15 colon is over 100 µM; in the experiment on MOLT-4 leukemia, over 100 µM; in the experiment on ACHN renal, over 100 µM; in the experiment with CCRF-CEM leukemia it was over 100 µM; with RPMI-8226 leukemia it was over 100 µM; with A498 renal, 38.2 µM. Moreover, the total growth inhibition concentration (TGI) is 85.3 µM with SF-539 CNS, 4.75 µM in the experiment on COLO 205 colon, over 100 µM with OVCAR-5 ovarian and 48.2 µM in the experiment with M14 melanoma.

In the case of `O=C(Nc1ccc(F)cc1F)c1cc(Br)ccc1O`, the GI50 in the experiment with HCT-15 colon was 3.04 µM; in the experiment on MOLT-4 leukemia, 2.96 µM; in the experiment with ACHN renal, 2.5 µM; with CCRF-CEM leukemia it was 3.71 µM; in the experiment on RPMI-8226 leukemia, 1.69 µM; in the experiment with A498 renal, 1.07 µM. The GI50 in the experiment on SF-539 CNS is 2.68 µM; in the experiment on COLO 205 colon, 3.75 µM; in the experiment with OVCAR-5 ovarian it was 3.83 µM; in the experiment on M14 melanoma, 1.91 µM. The total growth inhibition concentration (TGI) in the experiment on HCT-15 colon stood at 17.3 µM; with MOLT-4 leukemia it was 12.2 µM; in the experiment on ACHN renal, 8.4 µM; in the experiment on CCRF-CEM leukemia, 69.3 µM; in the experiment on RPMI-8226 leukemia, 5.29 µM; in the experiment with A498 renal, 2.75 µM. Further, the concentration for total growth inhibition (TGI) in the experiment on SF-539 CNS was 10.9 µM; with COLO 205 colon it was 13.8 µM; in the experiment on OVCAR-5 ovarian it was over 100 µM; in the experiment on M14 melanoma it was 6.99 µM.

Regarding `O=C(Nc1ccc(F)cc1)C(=O)C(C1OC(=O)c2ccccc21)[N+](=O)[O-]` (configuration not stated), the TGI with HCT-15 colon, in the experiment with MOLT-4 leukemia, in the experiment on ACHN renal, in the experiment with CCRF-CEM leukemia, in the experiment with RPMI-8226 leukemia and with A498 renal was over 100 µM each time. The TGI in the experiment with SF-539 CNS, in the experiment on COLO 205 colon, in the experiment with OVCAR-5 ovarian and with M14 melanoma was over 100 µM in each case.

For the compound `c1cc(OCCN2CCCCC2)ccc1CNc1ccc2nc(CCC3CCCCC3)[nH]c2c1`, the GI50 is 1.58 µM in the experiment with HCT-15 colon; 2.01 µM in the experiment with MOLT-4 leukemia; 2.2 µM in the experiment on ACHN renal; 1.97 µM in the experiment with CCRF-CEM leukemia; 1.49 µM in the experiment with RPMI-8226 leukemia; 1.67 µM with A498 renal. The GI50 with SF-539 CNS is 1.57 µM; with COLO 205 colon it was 1.76 µM; with OVCAR-5 ovarian, 2.04 µM; with M14 melanoma it was 1.72 µM. The TGI with HCT-15 colon stood at 3.89 µM; in the experiment with MOLT-4 leukemia, 6.2 µM; in the experiment on ACHN renal, 5.4 µM; with CCRF-CEM leukemia, 8.34 µM; with RPMI-8226 leukemia, 3.71 µM; in the experiment on A498 renal, 4.08 µM. Further, the TGI in the experiment with SF-539 CNS was found to be 3.06 µM; with COLO 205 colon, 3.31 µM; with OVCAR-5 ovarian, 5.64 µM; in the experiment with M14 melanoma, 3.38 µM.

Consider `COc1ccc(C2=C(c3ccc(OC)c(OC)c3)C(=O)OC2)cc1`, for which the GI50 in the experiment with HCT-15 colon is under 0.01 µM; in the experiment on MOLT-4 leukemia, under 0.0208 µM; in the experiment with ACHN renal it was under 0.0135 µM; in the experiment with CCRF-CEM leukemia it was 0.206 µM; in the experiment on RPMI-8226 leukemia, 0.0497 µM; with A498 renal it was 0.0803 µM. For the same compound, the GI50 in the experiment on COLO 205 colon was under 0.0238 µM; with OVCAR-5 ovarian it was 0.545 µM; in the experiment on M14 melanoma, under 0.01 µM. In addition, the TGI is 28.6 µM with HCT-15 colon; over 100 µM in the experiment on ACHN renal; 0.826 µM in the experiment with CCRF-CEM leukemia; 0.329 µM with RPMI-8226 leukemia; 42.3 µM in the experiment on A498 renal; over 24.2 µM with SF-539 CNS. For the same compound, the concentration for total growth inhibition (TGI) in the experiment with COLO 205 colon is over 68.1 µM; in the experiment with OVCAR-5 ovarian, over 100 µM; with M14 melanoma, over 36.4 µM.
